PubChem BioAssay (NCI)
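These data come from cells grown in 96-well plates and exposed to compound for 48 hours at five concentrations. Here, GI50 denotes the concentration required for 50% inhibition of growth. At the TGI there is no net growth.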

Assays:
Assay in all cases: NCI tumour cell line growth inhibition, 48 h
UO-31 renal = system: UO-31 renal
ACHN renal = system: ACHN renal
UACC-257 melanoma = system: UACC-257 melanoma
NCI/ADR-RES ovarian = system: NCI/ADR-RES ovarian
A498 renal = system: A498 renal
SW-620 colon = system: SW-620 colon
EKVX NSCLC = system: EKVX NSCLC
SK-OV-3 ovarian = system: SK-OV-3 ovarian
LOX IMVI melanoma = system: LOX IMVI melanoma
HCT-116 colon = system: HCT-116 colon
UACC-62 melanoma = system: UACC-62 melanoma
OVCAR-3 ovarian = system: OVCAR-3 ovarian
PC-3 prostate = system: PC-3 prostate
COLO 205 colon = system: COLO 205 colon
HCT-15 colon = system: HCT-15 colon
M14 melanoma = system: M14 melanoma
SNB-19 CNS = system: SNB-19 CNS
CCRF-CEM leukemia = system: CCRF-CEM leukemia
U251 CNS = system: U251 CNS
OVCAR-5 ovarian = system: OVCAR-5 ovarian
MDA-N = system: MDA-N
SF-295 CNS = system: SF-295 CNS
A549 NSCLC = system: A549 NSCLC
SK-MEL-5 melanoma = system: SK-MEL-5 melanoma
MDA-MB-435 = system: MDA-MB-435
MALME-3M melanoma = system: MALME-3M melanoma
NCI-H522 lung = system: NCI-H522 lung
DU-145 prostate = system: DU-145 prostate
SF-268 CNS = system: SF-268 CNS
HOP-62 NSCLC = system: HOP-62 NSCLC
NCI-H460 lung = system: NCI-H460 lung
MDA-MB-231 breast = system: MDA-MB-231 breast
HT29 colon = system: HT29 colon
TK-10 renal = system: TK-10 renal
MCF7 breast = system: MCF7 breast
SK-MEL-28 melanoma = system: SK-MEL-28 melanoma
CAKI-1 renal = system: CAKI-1 renal
K-562 leukemia = system: K-562 leukemia
T-47D breast = system: T-47D breast
IGROV1 ovarian = system: IGROV1 ovarian
MOLT-4 leukemia = system: MOLT-4 leukemia
HL-60(TB) leukemia = system: HL-60(TB) leukemia
RPMI-8226 leukemia = system: RPMI-8226 leukemia
OVCAR-8 ovarian = system: OVCAR-8 ovarian
SF-539 CNS = system: SF-539 CNS
RXF 393 renal = system: RXF 393 renal
NCI-H23 lung = system: NCI-H23 lung
BT-549 breast = system: BT-549 breast
SR leukemia = system: SR leukemia
786-0 renal = system: 786-0 renal
NCI-H226 lung = system: NCI-H226 lung
SNB-75 CNS = system: SNB-75 CNS
HCC-2998 colon = system: HCC-2998 colon
KM12 colon = system: KM12 colon
SK-MEL-2 melanoma = system: SK-MEL-2 melanoma
SN12C renal = system: SN12C renal
HS 578T breast = system: HS 578T breast
OVCAR-4 ovarian = system: OVCAR-4 ovarian
HOP-92 NSCLC = system: HOP-92 NSCLC

COc1ccc(-c2oc3ccccc3c(=O)c2O)cc1OC
TGI (UO-31 renal): > 100 µM
TGI (ACHN renal): > 100 µM
TGI (UACC-257 melanoma): > 100 µM
TGI (NCI/ADR-RES ovarian): > 100 µM
TGI (A498 renal): 71.5 µM
TGI (SW-620 colon): > 100 µM
TGI (EKVX NSCLC): > 100 µM
TGI (SK-OV-3 ovarian): > 100 µM
TGI (LOX IMVI melanoma): > 100 µM
TGI (HCT-116 colon): > 100 µM
TGI (UACC-62 melanoma): > 100 µM
TGI (OVCAR-3 ovarian): > 100 µM
TGI (PC-3 prostate): > 100 µM
TGI (COLO 205 colon): > 100 µM
TGI (HCT-15 colon): > 100 µM
TGI (M14 melanoma): > 100 µM
TGI (SNB-19 CNS): > 100 µM
TGI (CCRF-CEM leukemia): > 100 µM
TGI (U251 CNS): 23.4 µM
TGI (OVCAR-5 ovarian): > 100 µM
TGI (MDA-N): > 100 µM
TGI (SF-295 CNS): 35.1 µM
TGI (A549 NSCLC): > 100 µM
TGI (SK-MEL-5 melanoma): > 100 µM
TGI (MDA-MB-435): > 100 µM
TGI (MALME-3M melanoma): > 100 µM
TGI (NCI-H522 lung): > 100 µM
TGI (DU-145 prostate): > 100 µM
TGI (SF-268 CNS): 53 µM
TGI (HOP-62 NSCLC): 47.4 µM
TGI (NCI-H460 lung): > 100 µM
TGI (MDA-MB-231 breast): > 100 µM
TGI (HT29 colon): > 100 µM
TGI (TK-10 renal): 76.8 µM
TGI (MCF7 breast): > 100 µM
TGI (SK-MEL-28 melanoma): > 100 µM
TGI (CAKI-1 renal): > 100 µM
TGI (K-562 leukemia): > 100 µM
TGI (T-47D breast): > 100 µM
TGI (IGROV1 ovarian): > 100 µM

OCc1ccc(-c2csc(-c3ccc(CO)o3)c2)o1
GI50 (UO-31 renal): 49.7 µM
TGI (UO-31 renal): > 100 µM
GI50 (ACHN renal): 43.9 µM
TGI (ACHN renal): > 100 µM
GI50 (UACC-257 melanoma): 1.56 µM
TGI (UACC-257 melanoma): 4.75 µM
GI50 (MOLT-4 leukemia): 20.7 µM
TGI (MOLT-4 leukemia): 60.1 µM
GI50 (NCI/ADR-RES ovarian): 26.9 µM
TGI (NCI/ADR-RES ovarian): > 100 µM
GI50 (A498 renal): 0.018 µM
TGI (A498 renal): 0.0719 µM
GI50 (SW-620 colon): 35.9 µM
TGI (SW-620 colon): > 100 µM
GI50 (EKVX NSCLC): 21.3 µM
TGI (EKVX NSCLC): > 89.6 µM
GI50 (SK-OV-3 ovarian): 26.1 µM
TGI (SK-OV-3 ovarian): > 100 µM
GI50 (HL-60(TB) leukemia): 22.9 µM
TGI (HL-60(TB) leukemia): > 100 µM
GI50 (RPMI-8226 leukemia): 28.3 µM
TGI (RPMI-8226 leukemia): > 100 µM
GI50 (OVCAR-8 ovarian): 31.5 µM
TGI (OVCAR-8 ovarian): > 100 µM
GI50 (LOX IMVI melanoma): 66.5 µM
TGI (LOX IMVI melanoma): > 100 µM
GI50 (HCT-116 colon): 5.71 µM
TGI (HCT-116 colon): > 100 µM
GI50 (SF-539 CNS): 99.7 µM
TGI (SF-539 CNS): > 100 µM
GI50 (RXF 393 renal): > 79.7 µM
TGI (RXF 393 renal): > 100 µM
GI50 (UACC-62 melanoma): 0.767 µM
TGI (UACC-62 melanoma): 33.7 µM
GI50 (OVCAR-3 ovarian): 5.86 µM
TGI (OVCAR-3 ovarian): > 100 µM
GI50 (PC-3 prostate): 33.4 µM
TGI (PC-3 prostate): > 100 µM
GI50 (NCI-H23 lung): 34.9 µM
TGI (NCI-H23 lung): > 100 µM
GI50 (COLO 205 colon): 4.36 µM
TGI (COLO 205 colon): > 56 µM
GI50 (HCT-15 colon): 32.8 µM
TGI (HCT-15 colon): > 100 µM
GI50 (M14 melanoma): 30.6 µM
TGI (M14 melanoma): > 100 µM
GI50 (SNB-19 CNS): > 76.4 µM
TGI (SNB-19 CNS): > 100 µM
GI50 (BT-549 breast): 21.4 µM
TGI (BT-549 breast): > 80.7 µM
GI50 (CCRF-CEM leukemia): 31.1 µM
TGI (CCRF-CEM leukemia): > 100 µM
GI50 (U251 CNS): 29.7 µM
TGI (U251 CNS): > 100 µM
GI50 (SR leukemia): 26.8 µM
TGI (SR leukemia): > 100 µM
GI50 (OVCAR-5 ovarian): 0.199 µM
TGI (OVCAR-5 ovarian): 1.52 µM
GI50 (SF-295 CNS): 13.9 µM
TGI (SF-295 CNS): > 100 µM
GI50 (786-0 renal): 69.5 µM
TGI (786-0 renal): > 100 µM
GI50 (A549 NSCLC): 15.3 µM
TGI (A549 NSCLC): 64.9 µM
GI50 (NCI-H226 lung): 0.165 µM
TGI (NCI-H226 lung): 0.454 µM
GI50 (SK-MEL-5 melanoma): 17.5 µM
TGI (SK-MEL-5 melanoma): 41.5 µM
GI50 (MDA-MB-435): 24.1 µM
TGI (MDA-MB-435): > 100 µM
GI50 (SNB-75 CNS): > 55.3 µM
TGI (SNB-75 CNS): > 100 µM
GI50 (MALME-3M melanoma): 35.5 µM
TGI (MALME-3M melanoma): > 100 µM
GI50 (HCC-2998 colon): 40.4 µM
TGI (HCC-2998 colon): > 100 µM
GI50 (KM12 colon): 39.1 µM
TGI (KM12 colon): > 100 µM
GI50 (NCI-H522 lung): 43.6 µM
TGI (NCI-H522 lung): > 100 µM
GI50 (DU-145 prostate): 37.7 µM
TGI (DU-145 prostate): > 100 µM
GI50 (SK-MEL-2 melanoma): 40.9 µM
TGI (SK-MEL-2 melanoma): > 100 µM
GI50 (SN12C renal): 88.7 µM
TGI (SN12C renal): > 100 µM
GI50 (SF-268 CNS): 71.9 µM
TGI (SF-268 CNS): > 100 µM
GI50 (HS 578T breast): 70.6 µM
TGI (HS 578T breast): > 100 µM
GI50 (HOP-62 NSCLC): 27.1 µM
TGI (HOP-62 NSCLC): > 100 µM
GI50 (NCI-H460 lung): 9.75 µM
TGI (NCI-H460 lung): > 100 µM
GI50 (MDA-MB-231 breast): 67.2 µM
TGI (MDA-MB-231 breast): > 100 µM
GI50 (HT29 colon): 36.6 µM
TGI (HT29 colon): > 100 µM
GI50 (TK-10 renal): 0.64 µM
TGI (TK-10 renal): > 37.1 µM
GI50 (MCF7 breast): 0.752 µM
TGI (MCF7 breast): > 95 µM
GI50 (OVCAR-4 ovarian): 6.43 µM
TGI (OVCAR-4 ovarian): > 100 µM
GI50 (HOP-92 NSCLC): 20.4 µM
TGI (HOP-92 NSCLC): 86.4 µM
GI50 (SK-MEL-28 melanoma): 34.2 µM
TGI (SK-MEL-28 melanoma): > 100 µM
GI50 (CAKI-1 renal): 41.5 µM
TGI (CAKI-1 renal): > 100 µM
GI50 (K-562 leukemia): 11.6 µM
TGI (K-562 leukemia): > 100 µM
GI50 (T-47D breast): 1.44 µM
TGI (T-47D breast): 40 µM
GI50 (IGROV1 ovarian): 0.926 µM
TGI (IGROV1 ovarian): > 100 µM

COc1ccc(-c2coc3cc(O)ccc3c2=O)cc1
TGI (UO-31 renal): > 100 µM
TGI (ACHN renal): > 100 µM
TGI (UACC-257 melanoma): > 100 µM
TGI (MOLT-4 leukemia): > 100 µM
TGI (NCI/ADR-RES ovarian): > 100 µM
TGI (A498 renal): > 100 µM
TGI (SW-620 colon): > 100 µM
TGI (SK-OV-3 ovarian): > 100 µM
TGI (HL-60(TB) leukemia): > 100 µM
TGI (OVCAR-8 ovarian): > 100 µM
TGI (HCT-116 colon): > 100 µM
TGI (SF-539 CNS): > 100 µM
TGI (UACC-62 melanoma): > 100 µM
TGI (OVCAR-3 ovarian): > 100 µM
TGI (PC-3 prostate): > 100 µM
TGI (NCI-H23 lung): > 100 µM
TGI (COLO 205 colon): > 100 µM
TGI (HCT-15 colon): > 100 µM
TGI (M14 melanoma): > 100 µM
TGI (SNB-19 CNS): > 100 µM
TGI (CCRF-CEM leukemia): > 100 µM
TGI (U251 CNS): > 100 µM
TGI (SR leukemia): > 100 µM
TGI (OVCAR-5 ovarian): > 100 µM
TGI (MDA-N): > 100 µM
TGI (SF-295 CNS): > 100 µM
TGI (786-0 renal): > 100 µM
TGI (A549 NSCLC): > 100 µM
TGI (NCI-H226 lung): > 100 µM
TGI (SK-MEL-5 melanoma): > 100 µM
TGI (MDA-MB-435): > 100 µM
TGI (SNB-75 CNS): > 100 µM
TGI (MALME-3M melanoma): > 100 µM
TGI (HCC-2998 colon): > 100 µM
TGI (KM12 colon): > 100 µM
TGI (NCI-H522 lung): > 100 µM
TGI (DU-145 prostate): > 100 µM
TGI (SK-MEL-2 melanoma): > 100 µM
TGI (SN12C renal): > 100 µM
TGI (SF-268 CNS): > 100 µM
TGI (HS 578T breast): > 100 µM
TGI (HOP-62 NSCLC): > 100 µM
TGI (NCI-H460 lung): > 100 µM
TGI (MDA-MB-231 breast): > 100 µM
TGI (HT29 colon): > 100 µM
TGI (TK-10 renal): > 100 µM
TGI (MCF7 breast): > 100 µM
TGI (SK-MEL-28 melanoma): > 100 µM
TGI (CAKI-1 renal): > 100 µM
TGI (K-562 leukemia): > 100 µM
TGI (T-47D breast): > 100 µM
TGI (IGROV1 ovarian): > 100 µM
